Experimental data: patent US12617818B2, “Compositions and methods for modulating myosin subfragment-2 coiled coil stability and methods for using them” (UNIVERSITY OF NORTH TEXAS, priority 2020, dated 2026)
pEC50, pKd: −log10 of the molar value. Where “and” joins values, the source holds several entries; their conditions need not be identical. Equal values may be shown once.

How the values were obtained:
[1] = test system: rabbit skeletal myofibrils; experiment: Myofibrillar contractility assay (incubated myofibrils, 1 mM ATP); format: biochemical
[2] = molecular target: skeletal muscle myosin S2 peptide (MYH2) (Homo sapiens, UniProt Q9UKX2); experiment: FRET of skeletal muscle myosin S2 peptide dimer with anti-S2 peptides; format: binding; design: A 19 residue peptide of the S2 region of MYH2 was matched to the previously synthesized S2 peptide; host or cells: chemical synthesis; details: Skeletal peptide with Stabilizer
From the text: MYH2 gene codes for human skeletal muscle myosin expressed in fast type IIA muscle fibers. This myosin isoform can be found within extraocular muscle. A 19 residue peptide of the S2 region of MYH2 was matched to the previously synthesized S2 peptide of cardiac isoform and chemically synthesized […]. Generated amino acid sequence used is as follow: residues 925 to 945
(§1) Resonance energy probes (donor and acceptor) were covalently attached to synthetic myosin S2 peptides of cardiac muscle, E930del cardiac muscle, E924K cardiac muscle, smooth muscle, and skeletal muscle (Aboonasrshiraz, N., 2020).
Acceptor probe was conjugated to muscle myosin S2 peptides at N-terminus. Muscle myosin S2 peptides were dissolved in 20 mM HEPES buffer at pH 8.0. And FITC was dissolved in few drops of N, N dimethyl formamide. […]
(§2) In FRET assay, Fluorescein Isothiocyanate (FITC) functioned as fluorescent acceptor probe and Terbium Diethylene Triamine Pentaacetic Acid-Cytosine (Lanthanide-DTPA-Cytosine) functioned as donor probe. […] Lifetime of donor probe was measured in milliseconds.
Like cardiac muscle myosin S2^pep, dilution by decreasing the concentration of dimer skeletal muscle myosin S2^pep was performed and further was treated with different concentrations of anti-S2 peptides (FIG. 28A, 28B). […] Calculated separation distance in presence of the stabilizer peptide was 3.58 nm.

[3] = molecular target: T1, cardiac muscle myosin S2 mutant peptide E924K (MYH7) (Homo sapiens, UniProt P12883, E924K); experiment: FRET of E924K mutant cardiac myosin S2 peptide dimer with stabilizer; format: binding
T1 construct: cardiac muscle myosin S2 peptides region 921 to 939; host or cells: chemical synthesis
From the text: This mutation also causes mechanical instability and unstable coiled coil. Sequence of this mutation was obtained using PDB. A 19 residue peptide of this region was chemically synthesized. Generated amino acid sequence used is as follow: • E924K: NH2-[…]—COOH (SEQ ID NO:9)
as §1
Acceptor probe was conjugated to muscle myosin S2 peptides at N-terminus. Muscle myosin S2 peptides were dissolved in 20 mM HEPES buffer at pH 8.0. And FITC was dissolved in few drops of N, N dimethyl formamide. Lastly, FITC and muscle myosin S2 peptide was reacted together in 1 to 1 molar ratio and was let to react for 120 minutes at room temperature. The FITC conjugated S2 peptides were purified using […]. […]
as §2
E924K and Edel930; the myosin S2 HCM mutants, form unstable dimers. […] The calculated separation distance in presence of the stabilizer peptide was 3.65 nm. […]

Row | pKd ([1]; from percentage contraction vs concentration, listed as destabilizer peptide, read-out: binding efficiency (Kd) to myofibrils) | pEC50 ([1]; read-out: effective concentration on percentage of contraction in myofibrils) | TD (donor lifetime without acceptor) [2] | TD (donor lifetime without acceptor) [3] | Structure (SMILES) | concentration above which percentage contraction saturated [1] | maximum percentage contraction in myofibrils ([1]; in presence of destabilizer peptide)
1 | 8.10 and 8.11 | > 8.00 | – | – | CSCC[C@H](NC(=O)[C@H](CCC(=O)O)NC(=O)[C@H](CCCNC(=N)N)NC(=O)[C@H](CCC(=O)O)NC(=O)[C@H](CC(=O)O)NC(=O)[C@H](CCC(=O)O)NC(=O)[C@H](CC(C)C)NC(=O)[C@H](CCCNC(=N)N)NC(=O)[C@H](CCC(=O)O)NC(=O)[C@H](CC(N)=O)NC(=O)[C@H](CCSC)NC(=O)[C@@H](N)CCC(=O)O)C(=O)N[C@@H](CCCCN)C(=O)N[C@@H](C)C(=O)N[C@@H](CCC(=O)O)C(=O)N[C@@H](CC(C)C)C(=O)N[C@H](C(=O)N[C@@H](C)C(=O)N[C@@H](CCCCN)C(=O)O)[C@@H](C)O [Destabilizer] | above 40 nM | 43% and 41%
2 | – | – | 1.73E−03 | 1.94E−03 | C[C@H](NC(=O)[C@H](CCCCN)NC(=O)[C@H](Cc1ccccc1)NC(=O)[C@H](CCCCN)NC(=O)[C@H](CCCCN)NC(=O)[C@H](CCCCN)NC(=O)[C@H](CCCCN)NC(=O)[C@H](CCCCN)NC(=O)[C@H](CCCCN)NC(=O)[C@H](CCCCN)NC(=O)[C@@H](N)CCCCN)C(=O)N[C@@H](CCCCN)C(=O)N[C@@H](CCCCN)C(=O)N[C@@H](CCCCN)C(=O)N[C@@H](CCCCN)C(=O)N[C@@H](CCCCN)C(=O)N[C@@H](CCCCN)C(=O)O [Stabilizer] | – | –
